{"source": "patent US11872200B2", "about": "“GABA agonists in the treatment of disorders associated with metabolic syndrome and GABA combinations in treatment or prophylaxis of type I diabetes” (The Regents of the University of California, priority 2010, dated 2024)", "key": {"[1]": {"test_system": "β-cells", "assay": "STZ oxidative-stress induced β-cell apoptosis, pancreas sections co-stained with TUNNEL and anti-insulin", "type": "in vivo, C57Bl/6 mice", "conditions": "for relative area of insulin+ cells to the total area of the islets: 48 hours after STZ (FIG. 10C); for STZ mediated oxidative-stress-induced apoptosis: 48 hours after STZ, N=4 mice/group (FIG. 10A)", "procedure": "C57Bl/6 mice received a moderate dose of STZ and then given plain water (control), water+GABA, or water+baclofen (a GABAB-R agonist). 48 hours later their pancreas were removed and sections co-stained with TUNNEL and anti-insulin.\nN=4 mice/group, at least 100 islets analyzed per group."}, "[2]": {"test_system": "syngenic islet grafts in diabetic NOD mice", "assay": "Syngenic islet graft survival in diabetic NOD mice", "type": "in vivo", "conditions": "diabetic NOD mice treated 28 days, then NOD.scid islets under kidney capsule; 10 week observation period (FIG. 8)", "excerpt": "Mice were given insulin as needed. After 28 days the mice received NOD.scid islets under their kidney capsule and insulin treatment was discontinued. Data shown are individual mouse blood glucose levels post-transplantation (FIG. 8A-8D). […] Dashed line indicates blood glucose of 250 mgs/dL."}, "[3]": {"test_system": "newly diabetic NOD mice", "assay": "Reversal of hyperglycemia in newly diabetic NOD mice", "type": "in vivo", "conditions": "GABA 6 mgs/ml in drinking water, GAD/alum 100 μg sc on day 1 and 14 (FIG. 9)", "procedure": "Mice were considered diabetic after two blood glucose>250 mgs/dL. […] Data shown are blood glucose levels in individual mice given no treatment (FIG. 9A), GABA alone (6 mgs/ml in drinking water) (FIG. 9B), or GABA+GAD/alum (100 μg sc on day 1 and 14) (FIG. 9C)."}, "[4]": {"test_system": "Treg responses", "assay": "In vitro culture system with IL-2 and anti-CD3", "type": "cell-based", "conditions": "preliminary data; IL-2 and anti-CD3 in an in vitro culture system", "excerpt": "It is noted that the GABA treatment can both suppress autoimmune responses by working on GABA-A receptors on immune cells, and promote B-cell survival through their GABA-B receptors."}, "[5]": {"test_system": "HFD-fed mice", "assay": "GABA in drinking water of high fat diet (HFD) fed mice", "type": "in vivo", "procedure": "Mice were fed high fat diet (HFD) or “western diet” causing them to gain weight, become obese, and develop glucose intolerance, insulin resistance, and metabolic syndrome. The mice were provided either normal water, or water that contained GABA (6 mg/ml). The weight, food intake, water intake, glucose tolerance, insulin sensitivity and blood glucose levels of the mice was monitored over 5 months."}}, "data": [{"compound": "NCC(CC(=O)O)c1ccc(Cl)cc1", "note": "(racemic) [baclofen, (RS)-4-amino-3-(4-chlorophenyl)butanoic acid, reference compound]", "values": [{"measurement": "relative area of insulin+ cells to the total area of the islets", "setting": "[1]", "value": "greater β-cell area, but this did not reach the level of statistical significance"}, {"measurement": "STZ mediated oxidative-stress-induced apoptosis", "setting": "[1]; baclofen in water", "value": "significantly inhibits"}]}, {"compound": "NCCCC(=O)O", "note": "[GABA, 4-aminobutanoic acid]", "values": [{"measurement": "time until mice became diabetic again after receiving the graft", "setting": "[2]", "value": "about 3 weeks"}, {"measurement": "reversal of hyperglycemia", "setting": "[3]", "value": "prolongs a state of modest hyperglycemia for a short period, after which the mice progress to severe hyperglycemia"}, {"measurement": "Treg responses", "setting": "[4]", "value": "can promote Treg responses"}, {"measurement": "glucose tolerance", "setting": "[5]; GABA 6 mg/ml in water (FIG. 3)", "value": "improved"}, {"measurement": "insulin sensitivity", "setting": "[5]; GABA 6 mg/ml in water (FIG. 4)", "value": "improved"}, {"measurement": "fasting blood glucose levels", "setting": "[5]; GABA 6 mg/ml in water (FIG. 5)", "value": "reduced"}, {"measurement": "HFD-induced obesity (body weight)", "setting": "[5]; GABA 6 mg/ml in water (FIG. 6)", "value": "mitigated"}, {"measurement": "infiltration of macrophages into white adipose tissue", "setting": "[5]; GABA 6 mg/ml in water (FIG. 7, top panel)", "value": "inhibited"}, {"measurement": "mass of adipocytes", "setting": "[5]; GABA 6 mg/ml in water (FIG. 7 bottom panel)", "value": "significantly reduced"}, {"measurement": "insulin-expressing cells per 100 islet cells", "setting": "[1]; 48 hours after STZ (FIG. 10B)", "value": "preserving insulin-expressing β-cell s"}, {"measurement": "relative area of insulin+ cells to the total area of the islets", "setting": "[1]", "value": "preserve the area of insulin producing β-cells"}, {"measurement": "STZ mediated oxidative-stress-induced apoptosis", "setting": "[1]; GABA 2 mg/ml in water", "value": "significantly inhibits"}, {"measurement": "STZ mediated oxidative-stress-induced apoptosis", "setting": "[1]; GABA 6 mgs/ml in water", "value": "significantly inhibits"}]}, {"compound": "GAD/alum: glutamic acid decarboxylase (GAD) β-cell antigen vaccine given with alum adjuvant", "values": [{"measurement": "time until mice became diabetic again after receiving the graft", "setting": "[2]", "value": "about 3 weeks"}, {"measurement": "reversal of hyperglycemia", "setting": "[3]", "value": "cannot reverse hyperglycemia"}]}, {"compound": "insulin B-chain: β-cell antigen used as antigen-based therapy", "values": [{"measurement": "reversal of hyperglycemia", "setting": "[3]", "value": "cannot reverse hyperglycemia"}]}]}
